Values quoted from earlier work in patent publication US20240216394A1, “GOLEXANOLONE FOR USE IN THE TREATMENT OF FATIGUE OR COGNITIVE IMPAIRMENT IN LIVER DISEASE PATIENTS” (Umecrine Cognition AB, priority 2021, published 2024).

Columns and labels:
PBC-related fatigue = details: patients suffering from PBC-related fatigue
[1] = test system: rats following bile duct ligation (BDL)

Molecule	Benefit in PBC-related fatigue (PBC-related fatigue)	Effect on whole body fatigue [1]
NC(=O)C[S+]([O-])C(c1ccccc1)c1ccccc1 (stereo not shown) [Modafinil]	neither have proven beneficial	–
CNCCC(Oc1ccc(C(F)(F)F)cc1)c1ccccc1 (stereo not shown) [Fluoxetine]	neither have proven beneficial	–
dehydroepiandrosterone sulphate [DHEAS]	–	positive effect
Rituximab	neither have proven beneficial	–
